# Species: Rattus norvegicus
# Test: Open TG-GATES - Regimen: Single
# Assay type: toxicity, organism-based, Sprague-Dawley
# Parameters: regimen Single, gender Male, age 6 weeks
# Settings: in vivo, po, 300 mg/kg, route gavage, dose level High; for APTT / Bas / Eos / Fbg / Hb / Ht / Lym / MCH / MCHC / MCV / Mono / Neu / PT / Plat / RBC / Ret / WBC: tissue Blood; for KIDNEY_L / KIDNEY_R / KIDNEY_TOTAL: tissue Kidney; for LIVER: tissue Liver; for A/G / ALP / ALT / AST / BUN / CRE / Ca / Cl / DBIL / GLC / IP / K / LDH / Na / PL / RALB / TBIL / TC / TG / TP / gamma-GTP: tissue Plasma
structure (smiles),measurement,setting,value
Cc1cccc(Nc2ccccc2C(=O)O)c1C [MEFENAMIC ACID],TERMINAL_BW,3 h,215.2 g
same,APTT,3 h,18.8 s
same,Bas,3 h,0%
same,Eos,3 h,1.2%
same,Fbg,3 h,229.4 mg/dL
same,Hb,3 h,12.9 g/dL
same,Ht,3 h,36.2%
same,Lym,3 h,73.6%
same,MCH,3 h,21.8 pg
same,MCHC,3 h,35.6%
same,MCV,3 h,61.3 fL
same,Mono,3 h,2.8%
same,Neu,3 h,20.2%
same,PT,3 h,12.4 s
same,Plat,3 h,115.5 x10_4/uL
same,RBC,3 h,591.2 x10_4/ul
same,Ret,3 h,7.5%
same,WBC,3 h,95.9 x10_2/uL
same,KIDNEY_L,3 h,1 g
same,KIDNEY_R,3 h,1 g
same,KIDNEY_TOTAL,3 h,2 g
same,LIVER,3 h,9.5 g
same,A/G,3 h,1.5
same,ALP,3 h,832.8 IU/L
same,ALT,3 h,35.8 IU/L
same,AST,3 h,66.4 IU/L
same,BUN,3 h,11.6 mg/dL
same,CRE,3 h,0.4 mg/dL
same,Ca,3 h,10.7 mg/dL
same,Cl,3 h,102.6 meq/L
same,DBIL,3 h,0.072 mg/dL
same,GLC,3 h,181.2 mg/dL
same,IP,3 h,8.6 mg/dL
same,K,3 h,4.3 meq/L
same,LDH,3 h,184 IU/L
same,Na,3 h,139.6 meq/L
same,PL,3 h,134.2 mg/dL
same,RALB,3 h,3.2 g/dL
same,TBIL,3 h,0.1 mg/dL
same,TC,3 h,73.2 mg/dL
same,TG,3 h,38.4 mg/dL
same,TP,3 h,5.4 g/dL
same,gamma-GTP,3 h,1.4 IU/L
same,TERMINAL_BW,6 h,215.5 g
same,APTT,6 h,18.9 s
same,Bas,6 h,0%
same,Eos,6 h,1%
same,Fbg,6 h,220 mg/dL
same,Hb,6 h,13.2 g/dL
same,Ht,6 h,36.8%
same,Lym,6 h,73.2%
same,MCH,6 h,21.5 pg
same,MCHC,6 h,35.8%
same,MCV,6 h,60.2 fL
same,Mono,6 h,3%
same,Neu,6 h,19.6%
same,PT,6 h,12.7 s
same,Plat,6 h,114.8 x10_4/uL
same,RBC,6 h,612.4 x10_4/ul
same,Ret,6 h,7.5%
same,WBC,6 h,106.7 x10_2/uL
same,KIDNEY_L,6 h,1 g
same,KIDNEY_R,6 h,1 g
same,KIDNEY_TOTAL,6 h,2 g
same,LIVER,6 h,8.8 g
same,A/G,6 h,1.6
same,ALP,6 h,1032.8 IU/L
same,ALT,6 h,31.2 IU/L
same,AST,6 h,60.8 IU/L
same,BUN,6 h,13 mg/dL
same,CRE,6 h,0.3 mg/dL
same,Ca,6 h,10.4 mg/dL
same,Cl,6 h,104.2 meq/L
same,DBIL,6 h,0.06 mg/dL
same,GLC,6 h,194.6 mg/dL
same,IP,6 h,9.1 mg/dL
same,K,6 h,4.1 meq/L
same,LDH,6 h,175 IU/L
same,Na,6 h,140.2 meq/L
same,PL,6 h,133.4 mg/dL
same,RALB,6 h,3.3 g/dL
same,TBIL,6 h,0.1 mg/dL
same,TC,6 h,75.4 mg/dL
same,TG,6 h,39 mg/dL
same,TP,6 h,5.4 g/dL
same,gamma-GTP,6 h,1 IU/L
same,TERMINAL_BW,9 h,211.4 g
same,APTT,9 h,17.9 s
same,Bas,9 h,0%
same,Eos,9 h,1%
same,Fbg,9 h,221 mg/dL
same,Hb,9 h,13.1 g/dL
same,Ht,9 h,36.7%
same,Lym,9 h,70.4%
same,MCH,9 h,21.7 pg
same,MCHC,9 h,35.7%
same,MCV,9 h,60.7 fL
same,Mono,9 h,2.6%
same,Neu,9 h,22.8%
same,PT,9 h,13.1 s
same,Plat,9 h,112.4 x10_4/uL
same,RBC,9 h,604.8 x10_4/ul
same,Ret,9 h,7.5%
same,WBC,9 h,77.5 x10_2/uL
same,KIDNEY_L,9 h,1 g
same,KIDNEY_R,9 h,1 g
same,KIDNEY_TOTAL,9 h,2 g
same,LIVER,9 h,8.1 g
same,A/G,9 h,1.6
same,ALP,9 h,800.8 IU/L
same,ALT,9 h,29.8 IU/L
same,AST,9 h,58.8 IU/L
same,BUN,9 h,14.2 mg/dL
same,CRE,9 h,0.4 mg/dL
same,Ca,9 h,10.5 mg/dL
same,Cl,9 h,104.8 meq/L
same,DBIL,9 h,0.068 mg/dL
same,GLC,9 h,187.4 mg/dL
same,IP,9 h,9.4 mg/dL
same,K,9 h,4.2 meq/L
same,LDH,9 h,173.6 IU/L
same,Na,9 h,140.8 meq/L
same,PL,9 h,119 mg/dL
same,RALB,9 h,3.4 g/dL
same,TBIL,9 h,0.1 mg/dL
same,TC,9 h,65 mg/dL
same,TG,9 h,35.6 mg/dL
same,TP,9 h,5.5 g/dL
same,gamma-GTP,9 h,1 IU/L
same,TERMINAL_BW,24 h,225 g
same,APTT,24 h,18.3 s
same,Bas,24 h,0%
same,Eos,24 h,0.8%
same,Fbg,24 h,289.8 mg/dL
same,Hb,24 h,12.9 g/dL
same,Ht,24 h,36.8%
same,Lym,24 h,60.4%
same,MCH,24 h,22 pg
same,MCHC,24 h,35.1%
same,MCV,24 h,62.8 fL
same,Mono,24 h,3%
same,Neu,24 h,31.4%
same,PT,24 h,11.8 s
same,Plat,24 h,115.4 x10_4/uL
same,RBC,24 h,585.4 x10_4/ul
same,Ret,24 h,7%
same,WBC,24 h,131.5 x10_2/uL
same,KIDNEY_L,24 h,1 g
same,KIDNEY_R,24 h,1 g
same,KIDNEY_TOTAL,24 h,2.1 g
same,LIVER,24 h,10.5 g
same,A/G,24 h,1.5
same,ALP,24 h,850.8 IU/L
same,ALT,24 h,36 IU/L
same,AST,24 h,61.4 IU/L
same,BUN,24 h,14.2 mg/dL
same,CRE,24 h,0.4 mg/dL
same,Ca,24 h,10.4 mg/dL
same,Cl,24 h,103.6 meq/L
same,DBIL,24 h,0.08 mg/dL
same,GLC,24 h,185.2 mg/dL
same,IP,24 h,7.8 mg/dL
same,K,24 h,3.8 meq/L
same,LDH,24 h,187.2 IU/L
same,Na,24 h,141.4 meq/L
same,PL,24 h,133.4 mg/dL
same,RALB,24 h,3 g/dL
same,TBIL,24 h,0.1 mg/dL
same,TC,24 h,67 mg/dL
same,TG,24 h,100.2 mg/dL
same,TP,24 h,5 g/dL
same,gamma-GTP,24 h,2 IU/L

# Reference: ChEMBL document CHEMBL3885861, “Open TG-GATES”
